# Entries after “also recorded” stand apart in the source; their conditions may differ. Like-named read-outs stand apart in the source and are kept apart here. No end group written: not given here.
# Columns and labels:
# [1] = system: A549 Dox-resistant cells; assay: MTT cell viability, effect of CPPs on Dox cytotoxicity
# Experimental: (§1) A549 cell line is derived from a drug-resistant human lung carcinoma tissue and adherent in culture. […] It was cultured in RPMI-1640 medium supplemented with 10% FBS, 100 units/ml penicillin, and 100 µg/ml streptomycin at 37 °C in 5% CO2 a humidified atmosphere. Moreover, to develop resistance, 0.1 µM Dox was added to the medium which was not toxic to the cells.
# (§2) Cells were detached from flasks by trypsin and seeded in 96-well plates with a cell density of 1.5×10^4 cells/well (containing 200 μl/well of medium) and incubated for 24 hr at 37 °C in a humidified atmosphere of 5% CO2. The next day, cells were treated with different concentrations of peptides (15, 25, 50 μM), and incubated at the same condition for 24 hr. […] Data were collected from at least 3 independent experiments performed in triplicates and analyzed using the Graphpad Prism 7 software package.
# [2] = system: A549 cells; assay: Cellular uptake of FAM-labeled peptides by flow cytometry; settings: different concentrations, comparison stated in discussion
# Experimental: (§3) First, cells were seeded in 6-well plates (3×10^5 cells/well) and incubated for 24 hr. Then the medium was removed and cells were washed with PBS. FAM-labeled peptides and nano-complexes were added to wells and incubation was continued for 90 min. The old medium was removed and cells were washed with PBS three times and detached by trypsin/EDTA. Then 2 ml of medium was added to each well, and cells were centrifuged for 5 min, followed by washing three times with PBS and finally suspended in flow cytometry buffer to study the cellular uptake of FAM-labeled peptides and nano-complexes.
# [3] = system: A549 cells
# Experimental: as §3
# [4] = system: A549 Dox-resistant cells
# Experimental: as §1, §2
compound,measurement,setting,value
"COc1cccc2c1C(=O)c1c(O)c3c(c(O)c1C2=O)C[C@@](O)(C(=O)CO)C[C@@H]3O[C@H]1C[C@H](N)[C@H](O)[C@H](C)O1 [Dox, Doxorubicin, reference compound]",IC50,"[1]; Homo sapiens, A549, read-out: IC50 of Dox",20 µM
N=C(N)NCCC[C@H](NC(=O)[C@H](CCCNC(=N)N)NC(=O)[C@H](CCCNC(=N)N)NC(=O)[C@H](CCCNC(=N)N)NC(=O)[C@H](CCCNC(=N)N)NC(=O)[C@H](CCCNC(=N)N)NC(=O)[C@H](CCCNC(=N)N)NC(=O)[C@H](CCCNC(=N)N)NC(=O)[C@H](CCCNC(=N)N)NC(=O)[C@@H](N)CCCNC(=N)N)C(=O)O [Peptide P7],effect on Dox cytotoxicity,"[1]; 25 µM and 50 µM peptide, 20 µM Dox, 24 hr (Figure 3a), MTT",resulted in Dox cytotoxicity; also recorded: increased the Dox toxicity
same,effect on cytotoxicity of Dox,"[1]; 50 µM peptide, 20 µM Dox, after 48 hr (Figure 3b), MTT",increased the cytotoxicity of Dox
same,effect on Dox cytotoxicity,"[1]; after 48 hr, peptide concentration not stated (abstract)",increased Dox cytotoxicity
same,"cellular uptake (discussion, method not specified)",[2],higher uptake efficacy
KKKKKKKKKK [Peptide P8],"cellular uptake (discussion, method not specified)",[3],higher uptake compared with P8/E10 nano-complexes
same,cell viability,"[1]; 15 µM peptide 24 hr pre-treatment, then 20 µM Dox, 24 hr, MTT, at least 3 independent experiments in triplicates",52.5%
same,effect on Dox cytotoxicity,[4],increased Dox cytotoxicity
